Assay results published in EP0063525A1, “Dibenzazepine tetracyclic derivatives, process for their preparation and pharmaceutical compositions containing them” (CENTRE NATIONAL DE LA RECHERCHE SCIENTIFIQUE (CNRS), priority 1981, dated 1982).
Read-outs that look alike come from different tables or passages of the source.

Columns and labels:
Souris [1] = assay: antireserpine activity: reserpine hypothermia; assay type: in vivo; details: réserpine 5 mg/kg i.p. 17 h before; for change in vivo at 50 mg/kg / change in vivo at 150 mg/kg: ip, 4 h, read-out: % d'augmentation par rapport aux témoins
Protocol: On note ensuite les températures témoins (réserpine), puis les températures 1, 2, 3 et 4 heures après l'administration des produits étudiés.
Les animaux sont répartis en lots de 4 animaux et reçoivent par voie intrapéritonéale la réserpine à une dose de 5 mg/kg. 17 heures après cette injection, on mesure la température corporelle de l'animal à l'aide d'une sonde thermocouple introduite dans le rectum; chaque lot reçoit ensuite la substance par voie intrapéritonéale. Le lot témoin reçoit la même quantité de solvant et par la même voie. La température corporelle est ensuite mesurée toutes les heures pendant 4 heures.
Les résultats sont rassemblés dans un tableau récapitulatif-où sont indiqués : • - la température moyenne pour chaque lot relevée 17 heures après l'injection de la réserpine, • - la moyenne des variations de température pour chaque lot relevées 1,2, 3 et 4 heures après l'injection de la substance étudiée, • - la somme des variations de températures pendant 4 heures, • - le pourcentage d'augmentation de la température pour chaque produit par rapport aux témoins.

Souris [2] = assay: tetrabenazine hypothermia; assay type: in vivo
Protocol: (§1) Ce test permet de révéler également une activité antidépressive avec l'avantage d'une lecture plus rapide qu'avec la réserpine.
Les produits sont injectés 30 minutes avant l'administration de tétrabénazine.
Les températures sont relevées aux temps : 0, 30 minutes, 60 minutes, 90 minutes et 120 minutes.
(§2) Les souris sont réparties par lots de 5.
Les températures sont relevées avant l'injection de tétrabénazine, 30 minutes, 60 minutes, 90 minutes et 120 minutes après.
(§3) Le lot témoin comprend 20 souris.

Souris [3] = assay: tetrabenazine ptosis; assay type: in vivo
Protocol: as §1, §2
Le ptosis est noté avant l'injection de tétrabénazine, 30 minutes, 60 minutes, 90 minutes et 120 minutes après.
On a adopté la notation suivante : • - 0 : pour un oeil ouvert, • - 1 : pour un oeil fermé au quart, • - 2 : pour un oeil fermé à moitié, • - 3 : pour un oeil fermé aux trois-quarts, • - 4 : pour un oeil fermé complètement.
as §3

[4] = acute toxicity in the mouse, intraperitoneal; assay type: in vivo, Souris; details: mouse, in vivo, ip, voie intrapéritonéale; for LD50 at 48 h: souris femelles, read-out: DL 50; for mortality at 48 h: read-out: Mortalité %
From the text: (§4) Les produits ont été administrés par voie intrapéritonéale à des souris femelles dont le poids variait de 18 à 30 g.
(§5) Les animaux injectés ont été maintenus dans une salle thermostatée, nourris et abreuvés à volonté.
(§6) La mortalité a été relevée à 1 heure, 4 heures, 24 heures et 48 heures.

souris femelles = assay: acute toxicity in the mouse, intraperitoneal; assay type: in vivo; details: voie intrapéritonéale
From the text: as §4, §5, §6

[5] = product i.p. 80 mg/kg 30 min before tétrabénazine 32 mg/kg i.v.
[6] = product i.p. 50 mg/kg 30 min before tétrabénazine 32 mg/kg i.v.
[7] = product i.p. 50 mg/kg 30 min before tétrabénazine 32 mg/kg i.v., score 0-4 per eye
[8] = 100 mg/kg, dead mice of the group
[9] = 150 mg/kg, dead mice of the group
[10] = 200 mg/kg, dead mice of the group
[11] = 250 mg/kg, dead mice of the group
[12] = 50 mg/kg, dead mice of the group
[13] = product i.p. 100 mg/kg 30 min before tétrabénazine 32 mg/kg i.v., score 0-4 per eye
[14] = 500 mg/kg, dead mice of the group
[15] = 75 mg/kg, dead mice of the group
[16] = 125 mg/kg, dead mice of the group
[17] = product i.p. 150 mg/kg 30 min before tétrabénazine 32 mg/kg i.v.
[18] = product i.p. 150 mg/kg 30 min before tétrabénazine 32 mg/kg i.v., score 0-4 per eye
[19] = 300 mg/kg, dead mice of the group
[20] = 750 mg/kg, dead mice of the group
[21] = 1500 mg/kg, dead mice of the group

O=C(O)CCCCCCNC1c2ccccc2CCc2ccccc21 [Aminep-tine, amineptine, reference compound]
variation de température T=1h (Souris [1]; product i.p. 80 mg/kg): +1,5
variation de température T= 2h (Souris [1]; product i.p. 80 mg/kg): +1,6
variation de température T=3h (Souris [1]; product i.p. 80 mg/kg): +1
variation de température T=4h (Souris [1]; product i.p. 80 mg/kg): +0,1
inhibition in vivo at 80 mg/kg (Souris [2]; ip, 2 h, hypothermie, product i.p. 80 mg/kg 30 min before tétrabénazine 32 mg/kg i.v., read-out: % de protection): 51%
Température après tétrabénazine 30 minutes (Souris [2]; [5]): -1,8
Température après tétrabénazine 60 minutes (Souris [2]; [5]): -1,8
Température après tétrabénazine 90 minutes (Souris [2]; [5]): -1,1
Température après tétrabénazine 120 minutes (Souris [2]; [5]): -0,2
Température après tétrabénazine Total (Souris [2]; [5]): -4,2

CN(C)CCCN1c2ccccc2C2ON=C(c3ccccc3)C2c2ccccc21 (stereo not shown) [compound 3, (γ-diméthylaminopropyl)-8 phényl-3 trihydro-3a, 8,12b (dibenzo [b,f]isoxazolo [4,5-d])azépine]
inhibition in vivo at 50 mg/kg (Souris [3]; ip, 2 h, ptosis, product i.p. 50 mg/kg 30 min before tétrabénazine 32 mg/kg i.v., read-out: % de protection): 32%
Ptosis Total (Souris [3]; [6]): 20,4
Ptosis 30 minutes (Souris [3]; [7]): 1,6
Ptosis 60 minutes (Souris [3]; [7]): 5,2
Ptosis 90 minutes (Souris [3]; [7]): 6,8
Ptosis 120 minutes (Souris [3]; [7]): 6,8
change in vivo at 50 mg/kg (Souris [1]; product i.p. 50 mg/kg): 125%
variation de température T= 2h (Souris [1]; product i.p. 50 mg/kg): +0,9
variation de température T=3h (Souris [1]; product i.p. 50 mg/kg): +0,9
variation de température T=4h (Souris [1]; product i.p. 50 mg/kg): +0,1
inhibition in vivo at 50 mg/kg (Souris [2]; ip, 2 h, hypothermie, product i.p. 50 mg/kg 30 min before tétrabénazine 32 mg/kg i.v., read-out: % de protection): 40%
Température après tétrabénazine 30 minutes (Souris [2]; [6]): -0,9
Température après tétrabénazine 60 minutes (Souris [2]; [6]): -1,2
Température après tétrabénazine 90 minutes (Souris [2]; [6]): -2,6
Température après tétrabénazine 120 minutes (Souris [2]; [6]): -0,4
Température après tétrabénazine Total (Souris [2]; [6]): -5,1
LD50 at 48 h [4]: 200 mg/kg
mortality at 48 h ([4]; 100 mg/kg): 0%
mortality at 48 h ([4]; 150 mg/kg): 0%
mortality at 48 h ([4]; 200 mg/kg): 40%
mortality at 48 h ([4]; 250 mg/kg): 100%
Mortalité en 1 heure (souris femelles; [8]): 0
Mortalité en 48 h. (souris femelles; [8]): 0
Mortalité en 1 heure (souris femelles; [9]): 0
Mortalité en 48 h. (souris femelles; [9]): 0
Mortalité en 1 heure (souris femelles; [10]): 2
Mortalité en 48 h. (souris femelles; [10]): 2
Mortalité en 1 heure (souris femelles; [11]): 5
Mortalité en 48 h. (souris femelles; [11]): 5

CN(C)CCN1c2ccccc2-c2onc(-c3ccccc3)c2-c2ccccc21 [compound 17, (β-diméthylaminoéthyl)-8 phényl-3 (dibenzo [b,f]isoxazolo [4,5-d]) 8H azépine]
change in vivo at 50 mg/kg (Souris [1]; product i.p. 50 mg/kg): 0%
change in vivo at 150 mg/kg (Souris [1]; product i.p. 150 mg/kg): 300%
LD50 at 48 h [4]: 175 mg/kg
mortality at 48 h ([4]; 50 mg/kg): 0%
mortality at 48 h ([4]; 100 mg/kg): 0%
mortality at 48 h ([4]; 150 mg/kg): 0%
mortality at 48 h ([4]; 200 mg/kg): 100%
mortality at 48 h ([4]; 250 mg/kg): 100%
Mortalité en 1 heure (souris femelles; [12]): 0
Mortalité en 48 h. (souris femelles; [12]): 0
Mortalité en 1 heure (souris femelles; [8]): 0
Mortalité en 48 h. (souris femelles; [8]): 0
Mortalité en 1 heure (souris femelles; [9]): 0
Mortalité en 48 h. (souris femelles; [9]): 0
Mortalité en 1 heure (souris femelles; [10]): 5
Mortalité en 48 h. (souris femelles; [10]): 5
Mortalité en 1 heure (souris femelles; [11]): 4
Mortalité en 48 h. (souris femelles; [11]): 5

CC(CN(C)C)CN1c2ccccc2-c2onc(-c3ccccc3)c2-c2ccccc21 (stereo not shown) [compound 19, (méthyl-2 diméthylamino-3 propyl)-8 phényl-,3 (dibenzo [b ,f]isoxazolo [3 ,4-d]) 8H azépine]
inhibition in vivo at 100 mg/kg (Souris [3]; ip, 2 h, ptosis, product i.p. 100 mg/kg 30 min before tétrabénazine 32 mg/kg i.v., read-out: % de protection): 16%
Ptosis Total (Souris [3]; product i.p. 100 mg/kg 30 min before tétrabénazine 32 mg/kg i.v.): 25,3
Ptosis 30 minutes (Souris [3]; [13]): 5
Ptosis 60 minutes (Souris [3]; [13]): 6,3
Ptosis 90 minutes (Souris [3]; [13]): 6,7
Ptosis 120 minutes (Souris [3]; [13]): 7,3
change in vivo at 150 mg/kg (Souris [1]; product i.p. 150 mg/kg): 110%
variation de température T=1h (Souris [1]; product i.p. 150 mg/kg): +3,4
variation de température T= 2h (Souris [1]; product i.p. 150 mg/kg): +0,7
variation de température T=3h (Souris [1]; product i.p. 150 mg/kg): +0,7
variation de température T=4h (Souris [1]; product i.p. 150 mg/kg): -0,6
LD50 at 48 h [4]: 175 mg/kg
mortality at 48 h ([4]; 50 mg/kg): 0%
mortality at 48 h ([4]; 100 mg/kg): 0%
mortality at 48 h ([4]; 250 mg/kg): 60%
mortality at 48 h ([4]; 500 mg/kg): 100%
Mortalité en 1 heure (souris femelles; [12]): 0
Mortalité en 48 h. (souris femelles; [12]): 0
Mortalité en 1 heure (souris femelles; [8]): 0
Mortalité en 48 h. (souris femelles; [8]): 0
Mortalité en 1 heure (souris femelles; [11]): 1
Mortalité en 48 h. (souris femelles; [11]): 3
Mortalité en 1 heure (souris femelles; [14]): 5
Mortalité en 48 h. (souris femelles; [14]): 5

CN(C)CCCN1c2ccccc2C=Cc2ccccc21 [compound 21, (α-diméthylaminopropyl)-5 dibenzo [b,f] 5H azépine, reference compound]
change in vivo at 50 mg/kg (Souris [1]; product i.p. 50 mg/kg): 30%
variation de température T= 2h (Souris [1]; product i.p. 50 mg/kg): -0,1
variation de température T=3h (Souris [1]; product i.p. 50 mg/kg): +0,2
variation de température T=4h (Souris [1]; product i.p. 50 mg/kg): +0,5
LD50 at 48 h [4]: 100 mg/kg
mortality at 48 h ([4]; 50 mg/kg): 0%
mortality at 48 h ([4]; 75 mg/kg): 0%
mortality at 48 h ([4]; 125 mg/kg): 100%
mortality at 48 h ([4]; 250 mg/kg): 100%
Mortalité en 1 heure (souris femelles; [12]): 0
Mortalité en 48 h. (souris femelles; [12]): 0
Mortalité en 1 heure (souris femelles; [15]): 0
Mortalité en 48 h. (souris femelles; [15]): 0
Mortalité en 1 heure (souris femelles; [16]): 5
Mortalité en 48 h. (souris femelles; [16]): 5
Mortalité en 1 heure (souris femelles; [11]): 5
Mortalité en 48 h. (souris femelles; [11]): 5

( [1'-(β-hydroxyéthyl-4') pipérazinyl]-3propyl)-8 diphényl-1,3 tétrahydro-1,3a, 8,12b(dibenzo[b,f] pyrazolo [3,4-d])azépine [compound 10]
Ptosis Total (Souris [3]; [17]): 20,8
Ptosis 30 minutes (Souris [3]; [18]): 1
Ptosis 60 minutes (Souris [3]; [18]): 6
Ptosis 90 minutes (Souris [3]; [18]): 5,8
Ptosis 120 minutes (Souris [3]; [18]): 8
Ptosis T = 0 (Souris [3]; product i.p. 150 mg/kg, before tétrabénazine, score 0-4 per eye): 0
% de protection (Souris [3]; ptosis, product i.p. 150 mg/kg 30 min before tétrabénazine 32 mg/kg i.v.): 31%
% d'augmentation par rapport aux témoins (Souris [1]; product i.p. 150 mg/kg): 205%
variation de température T= 2h (Souris [1]; product i.p. 150 mg/kg): +2,4
variation de température T=3h (Souris [1]; product i.p. 150 mg/kg): +1,4
variation de température T=4h (Souris [1]; product i.p. 150 mg/kg): +0,6
% de protection (Souris [2]; hypothermie, product i.p. 150 mg/kg 30 min before tétrabénazine 32 mg/kg i.v.): 53%
Température après tétrabénazine 30 minutes (Souris [2]; [17]): -1,7
Température après tétrabénazine 60 minutes (Souris [2]; [17]): -1,9
Température après tétrabénazine 90 minutes (Souris [2]; [17]): +0,6
Température après tétrabénazine 120 minutes (Souris [2]; [17]): -1
Température après tétrabénazine Total (Souris [2]; [17]): -4
DL 50 (souris femelles; souris femelles, 2880 min): >750 mg/kg
Mortalité % (souris femelles; 200 mg/kg, 2880 min): 0%
Mortalité en 1 heure (souris femelles; [10]): 0
Mortalité en 48 h. (souris femelles; [10]): 0
Mortalité % (souris femelles; 300 mg/kg, 2880 min): 0%
Mortalité en 1 heure (souris femelles; [19]): 0
Mortalité en 48 h. (souris femelles; [19]): 0
Mortalité % (souris femelles; 750 mg/kg, 2880 min): 0%
Mortalité en 1 heure (souris femelles; [20]): 0
Mortalité en 48 h. (souris femelles; [20]): 0
Mortalité en 1 heure (souris femelles; [21]): 0
Mortalité en 48 heures (souris femelles; [21]): 1
